# Patent US4803074A, “FR-900848 substance and preparation thereof” (priority 1987, dated 1989)
# Legend:
# fungi = experiment: In vitro antimicrobial activity (summary statement); format: cell-based; conditions: for example Aspergillus niger, Geotrichum candidum, Trichophyton asteroides
# Procedure: (§1) In vitro antimicrobial activity was determined by the two-fold agar-plate dilution method as described below.
# (§2) One loopful of an overnight culture of each test strain in malt extract broth was streaked on malt extract agar containing graded concentrations of FR-900848 substance and MIC was determined after incubation at 37° C. for 20 hours.
# Solubility = format: physicochemical
# [1] = test system: Aspergillus niger IFO 4417; experiment: MIC (minimal inhibitory concentration), two-fold agar-plate dilution method; format: cell-based; conditions: IFO4417, malt extract agar, 37° C., 20 hours
# Procedure: as §1, §2
# Geotrichum candidum = experiment: as above; format: cell-based; conditions: malt extract agar, 37° C., 20 hours
# Procedure: as §1, §2
# Aureobasidium pullulans = experiment: as above; format: cell-based; conditions: malt extract agar, 37° C., 20 hours
# Procedure: as §1, §2
# Sclerotinia arachidis = experiment: as above; format: cell-based; conditions: malt extract agar, 37° C., 20 hours
# Procedure: as §1, §2
# [2] = test system: Mucor rouxianus (Calmette) Wehmer; experiment: as above; format: cell-based; conditions: 20 h, read-out: MIC (minimal inhibitory concentration)
# Procedure: as §1, §2
# Trichophyton asteroides = experiment: as above; format: cell-based; conditions: malt extract agar, 37° C., 20 hours
# Procedure: as §1, §2
# Fusarium oxysporum = experiment: as above; format: cell-based; conditions: malt extract agar, 37° C., 20 hours
# Procedure: as §1, §2
# [3] = Acute toxicity by intraperitoneal injection; conditions: mouse, in vivo, ip, mice (ICR, male, 4 weeks old)
# From the text: Acute toxicity of FR-900848 substance in mice (ICR, male, 4 weeks old) by intraperitoneal injection is more than 1.0 g/kg.
compound,measurement,setting,value
CC1CC1C=CC1CC1C1CC1C1CC1C1CC1C=CC=CC(=O)NCC1OC(N2CCC(=O)NC2=O)C(O)C1O (centres unmarked) [FR-900848 substance],antimicrobial activity against fungi,fungi,showed antimicrobial activity
same,Solubility,Solubility; chloroform,slightly soluble
same,Solubility,Solubility; dimethylsulfoxide,soluble
same,Solubility,Solubility; ethyl acetate,slightly soluble
same,Solubility,Solubility; methanol,slightly soluble
same,Solubility,Solubility; water,insoluble
same,MIC,[1],0.015 µg/mL
same,MIC,Geotrichum candidum,0.12 µg/mL
same,MIC,Aureobasidium pullulans,0.03 µg/mL
same,MIC,Sclerotinia arachidis,0.05 µg/mL
same,MIC,[2],0.03 µg/mL
same,MIC,Trichophyton asteroides,0.5 µg/mL
same,MIC,Fusarium oxysporum,0.05 µg/mL
same,LD50,[3],> 1000 mg/kg
